{"source": "paper PMC6378327", "about": "“Modes of Accessing Bicarbonate for the Regulation of Membrane Guanylate Cyclase (ROS-GC) in Retinal Rods and Cones” (eNeuro, 2019)", "biological_target": "T1, ROS-GC1 (Bos taurus, UniProt P55203)", "T1 construct": "gene GUCY2D; core catalytic domain, G817-Y965 (numbering for mature protein), homodimer", "T1 sequence (P55203 873-1021)": "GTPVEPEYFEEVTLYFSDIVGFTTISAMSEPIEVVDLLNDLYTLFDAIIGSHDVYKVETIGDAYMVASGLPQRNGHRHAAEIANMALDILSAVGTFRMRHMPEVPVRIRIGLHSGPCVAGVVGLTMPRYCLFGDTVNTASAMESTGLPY", "assay": "activation of purified recombinant core catalytic domain by […] bicarbonate, cGMP radioimmunoassay", "type": "biochemical", "settings": "30000 µM"}
{"smiles": "O=C(O)O", "note": "[bicarbonate]", "values": [{"measurement": "activation of purified recombinant core catalytic domain by 30 mM bicarbonate, c", "value": 3.4, "unit": "fold activity at 30 mM"}]}
